# Measurements: PubChem BioAssay AID2060501 (Molecular Pharmacology Branch, DTP, NCI, 2025)
# Test system: 282377-053-R-J1-PDC complex spheroids, viability
# Test: Anticancer human tumor 282377-053-R-J1-PDC patient-derived colon adenocarcinoma cell line growth inhibition [GQUAD]
# Settings: for IC50: curve of first compound; for viability, T/C: stronger effect = lower value
# Procedure, shortened: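 Tumor cells were grown as complex spheroids with HUVEC endothelial cells and mesenchymal stem cells as stroma. G-quadruplex stabilizers were combined with targeted agents over half-log dilutions from near the clinical Cmax, or from 10 microM.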
# [1] = second compound 0.0316 µM, first compound 0.0316 µM
# [2] = second compound 0.0316 µM, first compound 0.1 µM
# [3] = second compound 0.0316 µM, first compound 0.316 µM
# [4] = second compound 0.0316 µM, first compound 1 µM
# [5] = second compound 0.0316 µM, first compound 3.16 µM
# [6] = second compound 0.0316 µM, first compound 10 µM
# [7] = second compound 0.1 µM, first compound 0.0316 µM
# [8] = second compound 0.1 µM, first compound 0.1 µM
# [9] = second compound 0.1 µM, first compound 0.316 µM
# [10] = second compound 0.1 µM, first compound 1 µM
# [11] = second compound 0.1 µM, first compound 3.16 µM
# [12] = second compound 0.1 µM, first compound 10 µM
# [13] = second compound 0.316 µM, first compound 0.0316 µM
# [14] = second compound 0.316 µM, first compound 0.1 µM
# [15] = second compound 0.316 µM, first compound 0.316 µM
# [16] = second compound 0.316 µM, first compound 1 µM
# [17] = second compound 0.316 µM, first compound 3.16 µM
# [18] = second compound 0.316 µM, first compound 10 µM
# [19] = second compound 1 µM, first compound 0.0316 µM
# [20] = second compound 1 µM, first compound 0.1 µM
# [21] = second compound 1 µM, first compound 0.316 µM
# [22] = second compound 1 µM, first compound 1 µM
# [23] = second compound 1 µM, first compound 3.16 µM
# [24] = second compound 1 µM, first compound 10 µM
# [25] = second compound 3.16 µM, first compound 0.0316 µM
# [26] = second compound 3.16 µM, first compound 0.1 µM
# [27] = second compound 3.16 µM, first compound 0.316 µM
# [28] = second compound 3.16 µM, first compound 1 µM
# [29] = second compound 3.16 µM, first compound 3.16 µM
# [30] = second compound 3.16 µM, first compound 10 µM
# [31] = second compound 10 µM, first compound 0.0316 µM
# [32] = second compound 10 µM, first compound 0.1 µM
# [33] = second compound 10 µM, first compound 0.316 µM
# [34] = second compound 10 µM, first compound 1 µM
# [35] = second compound 10 µM, first compound 3.16 µM
# [36] = second compound 10 µM, first compound 10 µM
# 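Also: spheroids exposed to compounds for 7 days before readout.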
# 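For viability, T/C in this document: percent of vehicle DMSO control viability with 100% = untreated-like growth.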
compound,measurement,setting,value
Nc1ccn(C2OC(CO)C(O)C2(F)F)c(=O)n1 (stereo unspecified) + Cc1[nH]c2ccc(F)cc2c1-c1nc2c3cccnc3c3ncccc3c2[nH]1,IC50,second compound 0.0316 µM,211 nM
same,IC50,second compound 0.1 µM,222 nM
same,IC50,second compound 0.316 µM,216 nM
same,IC50,second compound 1 µM,228 nM
same,IC50,second compound 3.16 µM,81 nM
same,IC50,second compound 10 µM,< 31.6 nM
same,"viability, T/C",[1],119%
same,"viability, T/C",[2],74.1%
same,"viability, T/C",[3],35.8%
same,"viability, T/C",[4],30.9%
same,"viability, T/C",[5],29.4%
same,"viability, T/C",[6],21.1%
same,"viability, T/C",[7],106%
same,"viability, T/C",[8],81.1%
same,"viability, T/C",[9],35.8%
same,"viability, T/C",[10],29.5%
same,"viability, T/C",[11],31.8%
same,"viability, T/C",[12],18.9%
same,"viability, T/C",[13],97%
same,"viability, T/C",[14],86.3%
same,"viability, T/C",[15],32%
same,"viability, T/C",[16],28.4%
same,"viability, T/C",[17],26.7%
same,"viability, T/C",[18],20.5%
same,"viability, T/C",[19],105%
same,"viability, T/C",[20],74.4%
same,"viability, T/C",[21],37.4%
same,"viability, T/C",[22],30.1%
same,"viability, T/C",[23],23%
same,"viability, T/C",[24],16%
same,"viability, T/C",[25],74.8%
same,"viability, T/C",[26],44.5%
same,"viability, T/C",[27],18.8%
same,"viability, T/C",[28],14.9%
same,"viability, T/C",[29],17.6%
same,"viability, T/C",[30],9.41%
same,"viability, T/C",[31],39.2%
same,"viability, T/C",[32],28.9%
same,"viability, T/C",[33],16.2%
same,"viability, T/C",[34],10.3%
same,"viability, T/C",[35],10.9%
same,"viability, T/C",[36],8.65%
CC[C@@]1(O)C(=O)OCc2c1cc1n(c2=O)Cc2cc3c(CN(C)C)c(O)ccc3nc2-1 + Cc1[nH]c2ccc(F)cc2c1-c1nc2c3cccnc3c3ncccc3c2[nH]1,IC50,second compound 0.0316 µM,> 316 nM
same,IC50,second compound 0.1 µM,> 316 nM
same,IC50,second compound 0.316 µM,> 316 nM
same,IC50,second compound 1 µM,> 316 nM
same,IC50,second compound 3.16 µM,130 nM
same,IC50,second compound 10 µM,< 0.999 nM
same,"viability, T/C","second compound 0.0316 µM, first compound 0.000999 µM",92.6%
same,"viability, T/C","second compound 0.0316 µM, first compound 0.00316 µM",117%
same,"viability, T/C","second compound 0.0316 µM, first compound 0.00999 µM",116%
same,"viability, T/C",[1],93.1%
same,"viability, T/C","second compound 0.0316 µM, first compound 0.0999 µM",91.5%
same,"viability, T/C",[3],49.9%
same,"viability, T/C","second compound 0.1 µM, first compound 0.000999 µM",126%
same,"viability, T/C","second compound 0.1 µM, first compound 0.00316 µM",93.2%
same,"viability, T/C","second compound 0.1 µM, first compound 0.00999 µM",87.1%
same,"viability, T/C",[7],92%
same,"viability, T/C","second compound 0.1 µM, first compound 0.0999 µM",93.2%
same,"viability, T/C",[9],58.8%
same,"viability, T/C","second compound 0.316 µM, first compound 0.000999 µM",80.3%
same,"viability, T/C","second compound 0.316 µM, first compound 0.00316 µM",104%
same,"viability, T/C","second compound 0.316 µM, first compound 0.00999 µM",103%
same,"viability, T/C",[13],94.2%
same,"viability, T/C","second compound 0.316 µM, first compound 0.0999 µM",84%
same,"viability, T/C",[15],61.9%
same,"viability, T/C","second compound 1 µM, first compound 0.000999 µM",86.6%
same,"viability, T/C","second compound 1 µM, first compound 0.00316 µM",109%
same,"viability, T/C","second compound 1 µM, first compound 0.00999 µM",94.8%
same,"viability, T/C",[19],102%
same,"viability, T/C","second compound 1 µM, first compound 0.0999 µM",94.8%
same,"viability, T/C",[21],54.3%
same,"viability, T/C","second compound 3.16 µM, first compound 0.000999 µM",77.8%
same,"viability, T/C","second compound 3.16 µM, first compound 0.00316 µM",79.4%
same,"viability, T/C","second compound 3.16 µM, first compound 0.00999 µM",81.4%
same,"viability, T/C",[25],58.3%
same,"viability, T/C","second compound 3.16 µM, first compound 0.0999 µM",64%
same,"viability, T/C",[27],24.5%
same,"viability, T/C","second compound 10 µM, first compound 0.000999 µM",36.6%
same,"viability, T/C","second compound 10 µM, first compound 0.00316 µM",35.9%
same,"viability, T/C","second compound 10 µM, first compound 0.00999 µM",48.3%
same,"viability, T/C",[31],41.5%
same,"viability, T/C","second compound 10 µM, first compound 0.0999 µM",31.3%
same,"viability, T/C",[33],17.5%
C#Cc1c(F)ccc2cc(O)cc(-c3ncc4c(N5CC6CCC(C5)N6)nc(OCC56CCCN5CC(F)C6)nc4c3F)c12 (stereo unspecified) + CN(C)c1ccc(Nc2c3ccc(NC(=O)CCN4CCCC4)cc3nc3cc(NC(=O)CCN4CCCC4)ccc23)cc1,IC50,second compound 0.0316 µM,> 10000 nM
same,IC50,second compound 0.1 µM,> 10000 nM
same,IC50,second compound 0.316 µM,> 10000 nM
same,IC50,second compound 1 µM,> 10000 nM
same,IC50,second compound 3.16 µM,> 10000 nM
same,IC50,second compound 10 µM,> 10000 nM
same,"viability, T/C",[1],98%
same,"viability, T/C",[2],108%
same,"viability, T/C",[3],89.1%
same,"viability, T/C",[4],98.2%
same,"viability, T/C",[5],84.2%
same,"viability, T/C",[6],82.4%
same,"viability, T/C",[7],103%
same,"viability, T/C",[8],97.1%
same,"viability, T/C",[9],79.2%
same,"viability, T/C",[10],74.5%
same,"viability, T/C",[11],88.7%
same,"viability, T/C",[12],67.6%
same,"viability, T/C",[13],93.7%
same,"viability, T/C",[14],87.7%
same,"viability, T/C",[15],87.4%
same,"viability, T/C",[16],79.9%
same,"viability, T/C",[17],73.1%
same,"viability, T/C",[18],74%
same,"viability, T/C",[19],87.5%
same,"viability, T/C",[20],78.1%
same,"viability, T/C",[21],70.7%
same,"viability, T/C",[22],89.9%
same,"viability, T/C",[23],91.2%
same,"viability, T/C",[24],78.4%
same,"viability, T/C",[25],78.9%
same,"viability, T/C",[26],75.2%
same,"viability, T/C",[27],86.6%
same,"viability, T/C",[28],77.3%
same,"viability, T/C",[29],91.7%
same,"viability, T/C",[30],88.7%
same,"viability, T/C",[31],83.1%
same,"viability, T/C",[32],81.8%
same,"viability, T/C",[33],91.8%
same,"viability, T/C",[34],73.5%
same,"viability, T/C",[35],90.8%
same,"viability, T/C",[36],87.6%
